Assay results as given in ChEMBL document CHEMBL1151355, “The isolation of loliolide from an Indian Ocean opisthobranch mollusc” (1980).
In brackets after ≈: the same amount, converted by molar mass. Activity calls are given as the source filed them. The rule behind the calls is not given here.

How the values were obtained:
[1] = system: P388; experiment: In vivo cytotoxicity against mouse P388 cells at 2.5 to 10 mg/kg; assay type: functional, organism-based
[2] = system: KB; experiment: Cytotoxicity against human KB cells; assay type: functional; conditions: read-out: ED50 (the source's name)
[3] = system: P388; experiment: Cytotoxicity against mouse P388 cells; assay type: functional; conditions: read-out: ED50 (the source's name)

CC1(C)CC(O)C[C@@]2(C)OC(=O)C=C12 (stereo partly drawn)
Activity [1]: inactive | EC50 [2]: 10 µg/mL (≈ 51 µM) | EC50 [3]: 3.5 µg/mL (≈ 17.8 µM)
